Values quoted from earlier work as cited in patent US8871712B2, “Somatostatin analogue formulations” (Camurus AB, priority 2005, dated 2014).

Settings: in vivo

## C[C@@H](O)[C@@H]1NC(=O)[C@H](CCCCN)NC(=O)[C@@H](Cc2c[nH]c3ccccc23)NC(=O)[C@H](Cc2ccccc2)NC(=O)[C@@H](NC(=O)[C@H](N)Cc2ccccc2)CSSC[C@@H](C(=O)N[C@H](CO)[C@@H](C)O)NC1=O [Octreotide, D-Phe-Cys-Phe-D-Trp-Lys-Thr-Cys-Thr-ol (2-7 disulphide bridge)]
  Terminal half-life: around 1.7 hours
